Tests used:
[1] = Liver microsomal stability, mouse; type: in vitro ADME; settings: male, pH 7.4, liver microsomes
Method: (§1) Mouse hepatic microsomes were isolated from pooled (50), perfused livers of male Balb/c mice. Rat hepatic microsomes were isolated from pooled (15), perfused livers of male Wistar rats. Isolation was performed according to the standard protocol (Hill, J. R. in Current Protocols in Pharmacology 7.8.1-7.8.11, Wiley Interscience, 2003). The batches of microsomes were tested for quality control using Imipramine, Propranolol and Verapamil as reference compounds.
(§2) Microsomal incubations were carried out in 96-well plates in 5 aliquots of 40 μL each (one for each time point). Liver microsomal incubation medium contained PBS (100 mM, pH 7.4), MgCl2 (3.3 mM), NADPH (3 mM), glucose-6-phosphate (5.3 mM), glucose-6-phosphate dehydrogenase (0.67 units/ml) with 0.42 mg of liver microsomal protein per ml. Control incubations were performed replacing the NADPH-cofactor system with PBS. Test compound (2 μM, final solvent concentration 1.6%) was incubated with microsomes at 37° C., shaking at 100 rpm. Incubations were performed in duplicates. Five time points over 40 minutes have been analyzed. The reactions were stopped by adding 12 volumes of 90% acetonitrile-water to incubation aliquots, followed by protein sedimentation by centrifuging at 5500 rpm for 3 minutes. […]. Supernatants were analyzed using the HPLC system coupled with tandem mass spectrometer (API3000 PE Sciex). Acquisition and analysis of the data were performed using Analyst 1.5.2 software (PE Sciex). The elimination constant (kel), half-life (t½) and intrinsic clearance (Clint) were determined in plot of […] versus time, using linear regression analysis:
(§3) Mouse hepatic microsomes were isolated from pooled, perfused livers of male CD1 mice. Rat hepatic microsomes were isolated from pooled, perfused livers of male Sprague Dawley rats. Dog hepatic microsomes were isolated from pooled, perfused livers of male Beagle dogs. The batches of microsomes were tested for quality control using Testosterone, Propranolol and Caffeine as reference compounds.
(§4) A 10 mM stock solution of compound in DMSO is diluted three-fold in DMSO. This pre-diluted compound solution is then further diluted to 2 μM in a 50 mM phosphate buffer (PBS, pH 7.4) and pre-warmed at 37° C. This compound dilution is mixed F2 with microsomal/cofactor mix at 37° C. under shaking at 300 rpm. Final reaction conditions are: 100 μL incubation volume, 1 μM of test compound (in duplicate), <0.1% DMSO, 0.5 mg/mL microsomes, 0.6 U/mL Glucose-6-phosphate-dehydrogenase (G6PDH, Roche, 10127671001), 3.3 mM MgCl2 (Sigma, M2670), 3.3 mM glucose-6-phosphate (Sigma, G-7879) and 1.3 mM NADP+ (Sigma, N-0505).
(§5) After 60 min of incubation at 300 rpm and 37° C., the reaction was stopped with 3 volumes of STOP solution (acetonitrile/MeOH 2/1 with diclofenac as internal standard). For the time point zero, 3 volumes of STOP solution were added to the compound dilution before the microsome mix was added. Six time points over 60 minutes have been analyzed. The samples of all time points were centrifuged, filtered and the supernatant analyzed by LCMS/MS (systems API4000).
(§6) The instrument responses (peak areas/IS peak area) were referenced to the zero time-point samples (considered as 100%) in order to determine the percentage of compound remaining.
(§7) Testosterone (1 μM) and Propranolol and Caffeine (1 μM) were used as reference compounds, being unstable and stable compounds respectively. If the microsomal stability values for these controls are not in the range determined by the historical data, the assay is not validated. The solubility of the compound in the final test concentration in 50 mM buffer pH 7.4 is checked by microscope to indicate whether precipitation is observed or not. If a precipitate is observed, no data of microsomal stability is generated.

human AT2R fused to Cb23 = human AT2R fused to Cb23 (Homo sapiens, UniProt P50052); test: Radioligand binding assay, displacement of 125I-[Sar1, Ile8]-Angiotensin II, hAT2R Cb23; settings: displacement of 125I-[Sar1, Ile8]-Angiotensin II, human AT2R fused to Cb23, HEK-293 cell membrane preparations; read-out: Binding affinity on hAT2R_Cb23 IC50
Sequence of human AT2R fused to Cb23 (P50052 whole entry, looked up, the tested form may be a part): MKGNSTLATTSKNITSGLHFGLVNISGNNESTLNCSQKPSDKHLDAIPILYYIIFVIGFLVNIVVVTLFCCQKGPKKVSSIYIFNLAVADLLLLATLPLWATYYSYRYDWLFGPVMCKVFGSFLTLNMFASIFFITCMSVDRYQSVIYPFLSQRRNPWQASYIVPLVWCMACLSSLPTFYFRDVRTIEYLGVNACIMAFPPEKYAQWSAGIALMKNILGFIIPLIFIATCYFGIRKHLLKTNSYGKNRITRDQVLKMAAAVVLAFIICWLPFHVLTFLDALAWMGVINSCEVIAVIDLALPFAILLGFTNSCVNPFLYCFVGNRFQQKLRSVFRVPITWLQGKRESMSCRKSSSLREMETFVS
Procedure, shortened: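 Membranes from HEK-293 cells expressing human AT2R fused to Cb23 were incubated with 0.05 nM 125I-[Sar1, Ile8]-Angiotensin II in 100 μL buffer (50 mM Tris, 5 mM MgCl2, 1 mM EDTA, 0.1% BSA, pH 7.4) for one hour at 25° C. Ligands were tested as eight-point dose-response curves in duplicate, with C21 and Angiotensin II as references.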

[2] = Liver microsomal stability, rat; type: in vitro ADME; settings: male, pH 7.4, liver microsomes
Method: as §1, §2, §3, §4, §5, §6, §7

human AT1R = human AT1R (Homo sapiens (Human), UniProt P30556); test: Counterscreen radioligand binding assay, displacement of 125I-[Sar1, Ile8]-Angiotensin II, hAT1R WT; settings: for inhibition at 1 µM / inhibition at 10 µM: 125I-[Sar1, Ile8]-Ang II, semi-quantitative score; for inhibition at 1 µM: compound at 1 μM, read-out: % Displaced radioligand at 1 μM; for inhibition at 10 µM: compound at 10 μM, read-out: % Displaced radioligand at 10 μM; for IC50: HEK-293 cell membranes, read-out: Binding affinity On hAT1R IC50
Sequence of human AT1R (P30556 whole entry): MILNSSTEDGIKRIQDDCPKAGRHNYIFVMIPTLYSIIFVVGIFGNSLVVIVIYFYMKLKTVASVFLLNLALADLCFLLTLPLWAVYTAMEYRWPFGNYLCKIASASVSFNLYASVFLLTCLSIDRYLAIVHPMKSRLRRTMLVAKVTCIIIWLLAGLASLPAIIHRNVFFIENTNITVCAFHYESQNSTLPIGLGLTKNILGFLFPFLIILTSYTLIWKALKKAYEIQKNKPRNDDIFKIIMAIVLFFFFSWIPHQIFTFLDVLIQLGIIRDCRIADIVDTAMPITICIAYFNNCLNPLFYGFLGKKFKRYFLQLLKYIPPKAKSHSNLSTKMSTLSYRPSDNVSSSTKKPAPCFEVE
Procedure, shortened: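 Compounds displaced 0.05 nM 125I-[Sar1, Ile8]-Ang II from human AT1R in HEK-293 membranes (1 h, 25° C; Tris/MgCl2/EDTA/BSA buffer, pH 7.4). Readout was filtration and scintillation counting, with non-specific binding set by 10 μM [Sar1]-Ang II. Values are % displacement at 1 μM and […], or IC50 from eight-point four-parameter fits.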

[3] = Liver microsomal stability, human; type: in vitro ADME; settings: pH 7.4, liver microsomes
Method: as §2, §4, §5, §6, §7

[4] = Metabolic stability in hepatocytes, rat; type: in vitro ADME; settings: hepatocytes (cryopreserved), read-out: Rat Clint (μL/min/10^6 cells)
Method: The aim of this assay is to determine the metabolic stability of the compound in hepatocytes (cryopreserved) of different species (mouse CD1, rat Sprague Dawley, dog Beagle). Low hepatocyte stability may result in the formation of unwanted metabolites, high clearance, and therefore is not desirable. The decrease in parent was assessed by measuring the percentage remaining by LC-MS/MS analysis. The batches of hepatocytes were tested for quality control using Testosterone, Umbelliferone and Caffeine as reference compounds.
A 10 mM stock solution of test compound in DMSO was first diluted in DMSO to 3 mM, and then in modified Krebs-Henseleit buffer (Sigma, K3753) to 5 μM. This compound dilution was added to a suspension of pooled cryopreserved hepatocytes (BioIVT) at 37° C. under gentle shaking. Final reaction conditions were: 1 μM of test compound, <0.1% DMSO, 0.5 million viable hepatocytes/mL, and 75 μL incubation volume.
After 0, 10, 20, 45, 90, 120 and 180 min of incubation, the reaction was terminated with 3 volumes of MeCN:MeOH (2:1) containing diclofenac as analytical internal standard. Samples were mixed, centrifuged and the supernatant analyzed by LC-MS/MS (systems API4000). The instrument responses (ratios of test compound and internal standard peak areas) were referenced to the zero time point samples (considered as 100%) in order to determine the percentage of compound remaining. Plots of percentage compound remaining were used to determine the intrinsic clearance in the hepatocyte incubations.
Testosterone (1 μM) and Umbelliferone (1 μM) and Caffeine (1 μM) were used as reference compounds, being unstable and stable compounds respectively. If the hepatocyte stability values for these controls are not in the range determined by the historical data, the assay is not validated.

[5] = Liver microsomal stability, dog; type: in vitro ADME; settings: male, Beagle, pH 7.4, liver microsomes
Method: as §3, §4, §5, §6, §7

CYP2D6 = CYP2D6 (Homo sapiens (Human), UniProt P10635); test: CYP inhibition, CYP2D6; type: in vitro ADME; settings: CYP 2D6, ref. inhibitor conc. 0.5 μM
Sequence of CYP2D6 (P10635 whole entry): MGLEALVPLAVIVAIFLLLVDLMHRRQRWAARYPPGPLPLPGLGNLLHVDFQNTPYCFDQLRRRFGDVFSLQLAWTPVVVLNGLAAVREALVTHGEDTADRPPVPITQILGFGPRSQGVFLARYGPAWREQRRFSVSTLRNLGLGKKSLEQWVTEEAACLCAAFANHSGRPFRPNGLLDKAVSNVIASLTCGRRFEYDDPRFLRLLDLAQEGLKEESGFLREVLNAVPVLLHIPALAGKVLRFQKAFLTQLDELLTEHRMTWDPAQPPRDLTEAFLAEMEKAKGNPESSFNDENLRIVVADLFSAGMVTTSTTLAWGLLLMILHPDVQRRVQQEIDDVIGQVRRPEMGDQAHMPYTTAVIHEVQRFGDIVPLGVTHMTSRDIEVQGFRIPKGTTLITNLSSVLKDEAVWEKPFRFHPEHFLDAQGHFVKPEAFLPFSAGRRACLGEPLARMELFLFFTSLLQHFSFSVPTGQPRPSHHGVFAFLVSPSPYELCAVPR
Method: The aim of this assay is to determine the inhibitory potential of a test compound. A major concern for drug-drug-interaction is cytochrome P450 inhibition. Reversible CYP inhibition was determined in human liver microsomes using specific probe substrates for human cytochrome P450 isoenzymes CYP1A2, 2C9, 2C19, 2D6 and 3A4. […]
A 10 mM stock solution of test compound is prepared in methanol. This stock is further serially diluted 1:3 in methanol and then added to mixture containing 50 mM potassium phosphate buffer pH7.4, human liver microsomes (BD Gentest) and probe substrate. After pre-warming 5 min at 37° C., the reaction is started by adding co-factor mix ([…] glucose-6-phosphate, 1.7 mg/mL NADP, 6 U/mL of glucose-6-phosphate dehydrogenase), resulting in a final concentration of test compound at 10 μM (2% MeOH).
Final concentrations of co-factor mix components are as follows: 1.56 mg/mL glucose-6-phosphate, 0.34 mg/mL NADP, 1.2 U/mL of glucose-6-phosphate dehydrogenase.
After incubation at 37° C., the reaction (aliquot of 50 μL) is terminated with 150 μL CH3CN:MeOH (2:1) solution with internal standard (warfarin for 2C9, diclofenac for all other tested isoforms). Samples are centrifuged and the supernatant fractions analyzed by LC-MS/MS.
The instrument responses (ratio of test compound and internal standard peak areas) are referenced to those for solvent controls (assumed as 100%) in order to determine the percentage reduction in probe metabolism. Percent of control activity vs. concentration plots are generated and fitted using GraphPad Prism software to generate IC50.

| microsomal CLint [1] [µL/min/mg] | IC50 (human AT2R fused to Cb23) [nM] | microsomal CLint [2] [µL/min/mg] | inhibition at 1 µM (human AT1R) [%] | inhibition at 10 µM (human AT1R) [%] | IC50 (human AT1R) [nM] | microsomal CLint [3] [µL/min/mg] | hepatocyte CLint [4] [µL/min/1e6 cells] | microsomal CLint at 1 µM [5] [µL/min/mg] | SMILES | inhibition at 25 min, 0.5 µM (CYP2D6) [%] |
| --- | --- | --- | --- | --- | --- | --- | --- | --- | --- | --- |
| 14 | 628 | 13 | < 30 | 30 to 50 | 27800 | 32 |  |  | CC(C)Cc1ccc(-c2nn[nH]n2)c(N2CCN(Cc3nc4ccccc4s3)CC2)c1 [Compound A-48, 2-[[4-[5-isobutyl-2-(2H-tetrazol-5-yl)-phenyl]piperazin-1-yl]methyl]-1,3-benzothiazole] |  |
|  | 0.893 | 19 | < 30 | < 30 | 33600 | 18 | 2 |  | CC(C)Cc1cc(F)c(-c2nn[nH]n2)c(N2CC(C)N(Cc3cccnn3)C(C)C2)c1 (stereo not drawn) [Compound A-184, 3-[[4-[3-fluoro-5-isobutyl-2-(2H-tetrazol-5-yl)phen-yl]-2,6-dimethyl-piperazin-1-yl]-methyl]pyridazine] |  |
|  | 8.75 | 22.3 | < 30 | < 30 |  | 16.5 |  | < 11.7 | COc1ccnc(CN2CCN(c3cc(CC(C)C)cc(F)c3-c3nn[nH]n3)C[C@@H]2C)c1 [Compound A-227, (2S)-4-[3-fluoro-5-isobutyl-2-(2H-tetrazol-5-yl)phenyl]-1-[(4-methoxy-2-pyridyl)methyl]-2-methyl-piperazine] |  |
|  | 14.9 | 28.3 | < 30 | < 30 |  | 97.6 |  | < 11.7 | Cc1cccnc1CN1CCN(c2cc(CC(C)C)cc(F)c2-c2nn[nH]n2)C[C@@H]1C [Compound A-228, (2S)-4-[3-fluoro-5-isobutyl-2-(2H-tetrazol-5-yl)phenyl]-2-methyl-1-[(3-methyl-2-pyridyl)methyl]piperazine] |  |
|  | 7.98 | 24.8 | < 30 | < 30 |  | 21.6 |  | < 11.7 | Cc1ccnc(CN2CCN(c3cc(CC(C)C)cc(F)c3-c3nn[nH]n3)C[C@@H]2C)c1 [Compound A-229, (2S)-4-[3-fluoro-5-isobutyl-2-(2H-tetrazol-5-yl)phenyl]-2-methyl-1-[(4-methyl-2-pyridyl)methyl]piperazine] |  |
|  |  |  |  |  |  |  |  |  | C=C[C@H]1C[N@@]2CC[C@H]1C[C@@H]2[C@@H](O)c1ccnc2ccc(OC)cc12 [quinidine, reference compound] | 87.3 |

Source: patent US20240368133A1, “Compounds for the Treatment of Pain, in Particular, Neuropathic Pain, and/or Other Diseases or Disorders that are Associated with AT2R and/or AT2R Mediated Signaling” (Confo Therapeutics N.V., priority 2021, published 2024)
